Experimental data: US7645773B2, “Thiazoles as inhibitors of 11β-hydroxysteroid dehydrogenase” (Hoffmann-La Roche Inc., priority 2006, dated 2010)

molecular target: Purified human HSD1 (Homo sapiens, UniProt P28845); assay: In vitro inhibition of 11β-HSD1, enzyme assay (time-resolved fluorescence); type: biochemical; details: purified human HSD1, cortisone substrate, 37° C. for 30 min
Description: Purified human HSD1 was diluted in 50 mM Tris-HCl, 100 mM NaCl, 0.1 mg/mL BSA, 0.02% Lubrol, 20 mM MgCl2, 10 mM glucose 6-phosphate, 0.4 mM NADPH, 60 U/mL glucose 6-phosphate dehydrogenase to a concentration of 1.5 μg/mL (Enzyme Solution). Cortisone (100 μM) in DMSO was diluted to 1 μM with 50 mM Tris-HCl, 100 mM NaCl (Substrate Solution). Test compounds (40 μM) in DMSO were diluted 3 fold in series in DMSO and further diluted 20 fold in Substrate Solution. Enzyme Solution (10 μL/well) was added into 384 well microtiter plates followed by diluted compound solutions (10 μL/well) and mixed well. Samples were then incubated at 37° C. for 30 min. EDTA/biotin-cortisol solution (10 μL/well) in 28 mM EDTA, 100 nM biotin-cortisol, 50 mM Tris-HCl, 100 mM NaCl was then added followed by 5 μL/well of anti-cortisol antibody (3.2 μg/mL) in 50 mM Tris-HCl, 100 mM NaCl, 0.1 mg/mL BSA and the solution was incubated at 37° C. for 30 min. Five μL per well of Eu-conjugated anti-mouse IgG (16 nM) and APC-conjugated streptavidin (160 nM) in 50 mM Tris-HCl, 100 mM NaCl, 0.1 mg/mL BSA was added and the solution was incubated at room temperature for 2 hours. Signals were quantitated by reading time-resolved fluorescence on a Victor 5 reader (Wallace).
Percent inhibition of HSD1 activity by an agent at various concentrations was calculated by the following formula: % Inhibition=100*[1−(Fs−Fb)/(Ft−Fb)], wherein: • Fs is the fluorescence signal of the sample which included the agent, • Fb is the fluorescence signal in the absence of HSD1 and agent, • Ft is the fluorescence signal in the presence of HSD1, but no agent.
The inhibitory activities of test compounds were determined by the IC50s, or the concentration of compound that gave 50% inhibition.

Purified human HSD1, sequence (P28845 whole entry): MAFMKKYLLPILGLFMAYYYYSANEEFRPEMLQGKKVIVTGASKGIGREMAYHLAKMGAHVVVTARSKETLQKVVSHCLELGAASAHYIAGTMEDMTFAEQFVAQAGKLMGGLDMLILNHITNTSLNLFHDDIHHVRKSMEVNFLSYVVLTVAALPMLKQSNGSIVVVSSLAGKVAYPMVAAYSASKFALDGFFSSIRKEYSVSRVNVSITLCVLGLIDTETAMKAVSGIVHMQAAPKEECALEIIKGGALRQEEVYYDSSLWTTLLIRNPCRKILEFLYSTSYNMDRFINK

SMILES | IC50
CCOc1cc(Cl)ccc1-c1nc(C(=O)N2CCCC3CCCCC32)cs1 (stereo not drawn) [Example 46, [2-(4-Chloro-2-ethoxy-phenyl)-thiazol-4-yl]-(octahydro-quinolin-1-yl)-methanone] | 102 nM
O=C(N[C@H]1CC[C@H](O)CC1)c1csc(-c2ccccc2Cl)n1 [Example 124, 2-(2-Chloro-phenyl)-thiazole-4-carboxylic acid (4-hydroxy-cyclohexyl)-amide] | 1900 nM
C[C@@H]1CCC[C@H](C)N1C(=O)c1csc(-c2ccccc2Cl)n1 [Example 115, [2-(2-Chloro-phenyl)-thiazol-4-yl]-((2S,6R)-2,6-dimethyl-piperidin-1-yl)-methanone] | 340 nM
COc1cccc(Cl)c1-c1nc(C(=O)N2CCCC3CCCCC32)cs1 (stereo not drawn) [Example 117, [2-(2-Chloro-6-methoxy-phenyl)-thiazol-4-yl]-(octahydro-quinolin-1-yl)-methanone] | 1500 nM
O=C(c1csc(-c2cccc(Cl)c2Cl)n1)N1CCCC[C@H]1c1ccccn1 [Example 96, [2-(2,3-Dichloro-phenyl)-thiazol-4-yl]-(S)-3,4,5,6-tetrahydro-2H-[2,2′]bipyridinyl-1-yl-methanone] | 40 nM
O=C(c1csc(-c2ccc(-c3ccccc3)cc2)n1)N1CCCC2CCCCC21 (stereo not drawn) [Example 180, (2-Biphenyl-4-yl-thiazol-4-yl)-(octahydro-quinolin-1-yl)-methanone] | 930 nM
COc1ccccc1-c1nc(C(=O)N2CCCCC2C)cs1 (stereo not drawn) [Example 119, [2-(2-Methoxy-phenyl)-thiazol-4-yl]-(2-methyl-piperidin-1-yl)-methanone] | 730 nM
COc1ccc(-c2nc(C(=O)N3CCCC4CCCCC43)cs2)cc1 (stereo not drawn) [Example 17, [2-(4-Methoxy-phenyl)-thiazol-4-yl]-(octahydro-quinolin-1-yl)-methanone] | 373 nM
CC(=O)c1ccccc1-c1nc(C(=O)NC2CCCCCC2)cs1 [Example 144, 2-(2-Acetyl-phenyl)-thiazole-4-carboxylic acid cycloheptyl amide] | 32 nM
Cc1ccc(-c2nc(C(=O)N3CC(C)CC(C)C3)cs2)cc1 (stereo not drawn) [Example 33, (3,5-Dimethyl-piperidin-1-yl)-(2-p-tolyl-thiazol-4-yl)-methanone] | 365 nM
O=C(c1csc(-c2cccc(OCc3ccccc3)c2)n1)N1CCCC2CCCCC21 (stereo not drawn) [Example 61, [2-(3-Benzyloxy-phenyl)-thiazol-4-yl]-(octahydro-quinolin-1-yl)-methanone] | 457 nM
O=C(c1csc(-c2ccccc2Cl)n1)N1CCCCCCC1 [Example 10, Azocan-1-yl-[2-(2-chloro-phenyl)-thiazol-4-yl]-methanone] | 50 nM
